Here are results for eleven compounds from ChEMBL document CHEMBL1201862, “PubChem BioAssay data set” (2004).

Molecules are shown by their SMILES.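 Where inhibition never reached the appropriate level, the endpoint shown equals the highest concentration tested. Otherwise, values were interpolated linearly from a five-concentration, 48-hour dose response in 96-well plates. Abbreviation: GI50, concentration required for 50% inhibition of growth.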 The source made the active and inactive calls. Cut-off read from the data, not from the text of the source: active = GI50 up to about 1.1 µM and inactive = higher.

Holding throughout (test): inhibition of tumour cell growth, NCI panel, 48 h
Experiment [1] concerns 786-0.
Experiment [2] has as its system A498.
Experiment [3] deals with A549.
The subject of experiment [4] is EKVX.
Experiment [5] concerns HCT-116.
The test system of experiment [6] is HCT-15.
For experiment [7], the system named is HOP-62.
The subject of experiment [8] is HOP-92.
Experiment [9] relates to LOX IMVI.
The subject of experiment [10] is MCF7.
Experiment [11] concerns MDA-MB-435.
Experiment [12] has as its system NCI-H460.
Experiment [13] relates to OVCAR-5.
Experiment [14] has as its system UO-31.
Experiment [15] deals with K562.
For experiment [16], the system named is NCI-H226.
Experiment [17] has as its system SF-268.
Experiment [18] deals with SNB-75.
Experiment [19] relates to SF-295.
For experiment [20], the system named is NCI-H522.

With `O=C(/C=C/c1ccccc1)c1cc(C(=O)/C=C/c2ccccc2)c(O)cc1O`, the GI50 was > 100 µM (inactive) in experiment [1]; 31.9 µM (inactive) in experiment [2]; > 100 µM (inactive) in [3]; 18.7 µM (inactive) in experiment [4]; 60.1 µM (inactive) in experiment [5]; > 100 µM in experiment [6]. For the same compound, the GI50 is > 100 µM (inactive) in experiment [7]; > 100 µM (inactive) in experiment [8]; > 100 µM (inactive) in experiment [9]; 51.4 µM (inactive) in experiment [10]; > 100 µM (inactive) in experiment [11]; > 100 µM (inactive) in experiment [12]. Moreover, the GI50 in [13] was > 100 µM (inactive); in [14], 41.3 µM (inactive).

Consider `CC(C)SC(C)(NC(=O)C1C(C)(C)CCC1(C)C)C(=O)O` (stereo not given), for which the GI50 in [1] was > 100 µM (inactive); in [2], > 100 µM (inactive); in [3], > 100 µM (inactive); in experiment [4] it was > 100 µM (inactive); in [5], > 100 µM (inactive); in experiment [6], > 100 µM. Moreover, the GI50 in experiment [7], in [8], in experiment [15], in experiment [9], in experiment [10] and in experiment [11] was > 100 µM (inactive) throughout. Also, the GI50 in experiment [16], in experiment [12], in experiment [13], in experiment [17], in experiment [18] and in experiment [14] was > 100 µM (inactive) throughout.

With `Cc1cn(CCOCCOC(=O)NC(CCCNC(=N)N)C(=O)O)c(=O)[nH]c1=O` (stereo not given), the GI50 in [1] was > 100 µM (inactive); in [2], > 100 µM (inactive); in experiment [3], > 100 µM (inactive); in [4] it was > 100 µM (inactive); in experiment [5], > 100 µM (inactive); in experiment [6] it was > 100 µM. In addition, the GI50 in experiment [7], in experiment [8], in [15], in experiment [9], in [10] and in experiment [11] was > 100 µM (inactive) throughout. In addition, the GI50 in [16], in [12], in experiment [13], in [17], in experiment [19] and in [18] was > 100 µM (inactive) throughout. In addition, the GI50 in experiment [14] was > 100 µM (inactive).

Consider `CCCCC1Cc2ccccc2-c2nc3ccccc3n21` (stereo not given), for which the GI50 in [1] is 25.2 µM (inactive); in [2], 16.7 µM (inactive); in [4], 21 µM (inactive); in experiment [5], 12.6 µM (inactive); in [6] it was 12.6 µM; in experiment [7] it was 19.1 µM (inactive). The GI50 was 16.4 µM (inactive) in [8]; 12.6 µM (inactive) in experiment [15]; 16 µM (inactive) in experiment [9]; 17.3 µM (inactive) in [10]; 17.1 µM (inactive) in experiment [11]; 19.4 µM (inactive) in experiment [16]. Moreover, the GI50 in experiment [12] is 14.3 µM (inactive); in experiment [20] it was 13 µM (inactive); in experiment [13] it was 16 µM (inactive); in experiment [17], 17.3 µM (inactive); in experiment [19], 15 µM (inactive); in experiment [14], 19.1 µM (inactive).

On to `O=CC1C[C@@H](N2C(=O)O[C@@H](c3ccccc3)[C@H]2c2ccccc2)[C@@H]1COCc1ccccc1` (stereo not given in full), for which the GI50 in experiment [1] is 14.3 µM (inactive); in [2], 20.9 µM (inactive); in experiment [3], 29.9 µM (inactive); in experiment [4], 20 µM (inactive); in [5], 16.7 µM (inactive); in [6] it was 18 µM. Also, the GI50 in experiment [7] is 18 µM (inactive); in experiment [8], 15 µM (inactive); in experiment [15], 21.1 µM (inactive); in experiment [9] it was 17.7 µM (inactive); in experiment [10], 17.8 µM (inactive); in experiment [11] it was 18.2 µM (inactive). Also, the GI50 is 20.2 µM (inactive) in [16]; 18.3 µM (inactive) in [12]; 16.4 µM (inactive) in [20]; 22.4 µM (inactive) in experiment [13]; 17.3 µM (inactive) in experiment [17]; 17.3 µM (inactive) in [19]. The GI50 in experiment [14] is 15.2 µM (inactive).

On to `CCCC(CC)c1c(O)c(O)c(C(CC)CCC)c(C(CC)CCC)c1C(CC)CCC` (stereo not given), for which the GI50 in [1] is > 10 µM (inactive); in experiment [2], > 10 µM (inactive); in experiment [3], > 10 µM (inactive); in [4], > 10 µM (inactive); in [5] it was > 10 µM (inactive); in experiment [6] it was > 10 µM. Moreover, the GI50 in [7], in experiment [8], in [15], in [9], in [10] and in experiment [11] was > 10 µM (inactive) throughout. Besides, the GI50 in experiment [16], in [12], in [20], in experiment [13], in experiment [17] and in [19] was > 10 µM (inactive) throughout. For the same compound, the GI50 in experiment [14] was > 10 µM (inactive).

`CCc1c2c(cc3c1CC1(C3)Cc3cc4c(c(C(=O)OC)c3C1)CCCC4)CCCC2` (stereo not given): the GI50 in [1] was 12.1 µM (inactive); in [2] it was > 100 µM (inactive); in [3], 29.7 µM (inactive); in experiment [4], 28.4 µM (inactive); in experiment [5], 20 µM (inactive); in [6], > 100 µM. The GI50 in experiment [7], in experiment [8], in [15], in experiment [9], in experiment [10] and in experiment [11] was > 100 µM (inactive) each time. The GI50 in experiment [16], in experiment [20], in experiment [13], in experiment [19] and in [14] was > 100 µM (inactive) in each case.

For the compound `COc1cc(/C=C2\N=C(c3ccccc3)N(c3ccc(C(=O)c4ccccc4)cc3N3C(=O)/C(=C/c4ccc(O)c(OC)c4)N=C3c3ccccc3)C2=O)ccc1O`, the GI50 in experiment [1] is 18.9 µM (inactive); in [2], 6.92 µM (inactive); in [3], 11.4 µM (inactive); in experiment [4], 25.9 µM (inactive); in experiment [5], 5.62 µM (inactive); in experiment [6], 5.28 µM. Besides, the GI50 was 14.5 µM (inactive) in experiment [7]; 22.7 µM (inactive) in experiment [8]; 5.18 µM (inactive) in experiment [15]; 10.5 µM (inactive) in experiment [9]; 5.85 µM (inactive) in [10]; 2.25 µM (inactive) in experiment [11]. The GI50 was 4.66 µM (inactive) in experiment [12]; 32.4 µM (inactive) in experiment [13]; 15.3 µM (inactive) in [17]; 6.43 µM (inactive) in experiment [19]; 18.8 µM (inactive) in experiment [18]; 13 µM (inactive) in experiment [14].

As to `Cc1cc(C)c(N[S+]([O-])c2ccc(Cl)cc2)c(C)c1` (stereo not given), the GI50 is > 100 µM (inactive) in experiment [1]; > 100 µM (inactive) in experiment [2]; > 100 µM (inactive) in experiment [3]; > 100 µM (inactive) in experiment [4]; > 100 µM (inactive) in [5]; > 100 µM in experiment [6]. Besides, the GI50 in experiment [7] was > 100 µM (inactive); in experiment [8], 68.7 µM (inactive); in experiment [15] it was > 100 µM (inactive); in experiment [10], > 100 µM (inactive); in experiment [11], 51.5 µM (inactive); in [16], > 100 µM (inactive). Moreover, the GI50 in [12], in experiment [13], in experiment [17], in [19] and in experiment [14] was > 100 µM (inactive) throughout.

For `c1cc(-c2cscc2-c2ccsc2)cs1`, the GI50 is 72.1 µM (inactive) in [1]; > 100 µM (inactive) in experiment [2]; 43.6 µM (inactive) in experiment [3]; 41.3 µM (inactive) in [4]; 40.5 µM (inactive) in experiment [5]; 29.4 µM in [6]. Further, the GI50 was 26.5 µM (inactive) in experiment [7]; > 100 µM (inactive) in experiment [8]; 71.4 µM (inactive) in experiment [15]; 37.6 µM (inactive) in experiment [9]; 30.5 µM (inactive) in [10]; 36.4 µM (inactive) in [11]. Further, the GI50 is 43.9 µM (inactive) in experiment [12]; 53.2 µM (inactive) in experiment [13]; 58.2 µM (inactive) in [17]; 83.4 µM (inactive) in [19]; 12.3 µM (inactive) in [18]; 72.9 µM (inactive) in experiment [14].

In the case of `CC(=O)O[C@H]1CCC2[C@@H]3CCC4NC(=O)C(C#N)C[C@]4(C)C3CC[C@@]21C` (stereo not given in full), the GI50 in experiment [1] was > 10 µM (inactive); in experiment [2], > 10 µM (inactive); in experiment [3] it was > 10 µM (inactive); in experiment [4], 8.17 µM (inactive); in experiment [5], > 10 µM (inactive); in experiment [6], > 10 µM. Moreover, the GI50 in experiment [7], in experiment [8], in experiment [15], in experiment [9], in experiment [10] and in [11] was > 10 µM (inactive) each time. In addition, the GI50 in experiment [16], in experiment [12], in [13], in experiment [17], in experiment [19] and in experiment [14] was > 10 µM (inactive) in each case.
